Measurements as given in the NIST ThermoML archive (doi:10.1021/je0340248).
Numbers after ± are expanded uncertainties.

Experiment: xn = mol fraction of the nth substance listed
Settings: 101 kPa, Liquid

CC(O)CO (centres undefined) [1,2-propanediol] + CCCCOC(C)=O
Settings	mass density, 298.15 K [kg/m3]	mass density, 303.15 K [kg/m3]	mass density, 308.15 K [kg/m3]	mass density, 313.15 K [kg/m3]	speed of sound, 298.15 K [m/s]	speed of sound, 308.15 K [m/s]	viscosity, 298.15 K [mPa·s]	viscosity, 308.15 K [mPa·s]
x2 = 0.0445	1020.01 ± 0.36	1016.1 ± 0.37	1012.28 ± 0.38	1008.28 ± 0.39	1467 ± 2	1429 ± 2	31.87 ± 0.44	18.51 ± 0.34
x2 = 0.1493	993.58 ± 0.45	989.44 ± 0.46	985.19 ± 0.48	980.98 ± 0.49	1407 ± 2	1372 ± 2	16.1 ± 0.25	10.19 ± 0.16
x2 = 0.2487	972.28 ± 0.53	968.01 ± 0.55	963.42 ± 0.56	959.09 ± 0.57	1355 ± 2	1322 ± 2	8.935 ± 0.14	6.083 ± 0.095
x2 = 0.3511	953.32 ± 0.61	948.95 ± 0.62	944.08 ± 0.64	939.65 ± 0.65	1310 ± 2	1280 ± 2	5.175 ± 0.084	3.762 ± 0.06
x2 = 0.446	937.92 ± 0.67	933.47 ± 0.68	928.39 ± 0.7	923.85 ± 0.72	1276 ± 2	1246 ± 2	3.295 ± 0.053	2.523 ± 0.041
x2 = 0.4973	930.34 ± 0.7	925.83 ± 0.72	920.66 ± 0.73	916.07 ± 0.75	1260 ± 2	1230 ± 2	2.638 ± 0.042	2.071 ± 0.034
x2 = 0.5491	923.15 ± 0.73	918.58 ± 0.75	913.33 ± 0.76	908.68 ± 0.78	1247 ± 2	1217 ± 2	2.141 ± 0.034	1.719 ± 0.028
x2 = 0.6504	910.32 ± 0.78	905.62 ± 0.8	900.23 ± 0.82	895.46 ± 0.83	1226 ± 2	1194 ± 2	1.489 ± 0.024	1.241 ± 0.02
x2 = 0.7495	899.15 ± 0.83	894.34 ± 0.85	888.84 ± 0.87	883.97 ± 0.88	1210 ± 2	1178 ± 2	1.106 ± 0.019	0.947 ± 0.016
x2 = 0.8489	889.19 ± 0.87	884.29 ± 0.89	878.67 ± 0.91	873.72 ± 0.93	1200 ± 2	1165 ± 2	0.87 ± 0.015	0.759 ± 0.013
x2 = 0.946	880.55 ± 0.91	875.62 ± 0.93	869.86 ± 0.95	864.9 ± 0.97	1194 ± 2	1155 ± 2	0.727 ± 0.013	0.64 ± 0.012

CC(O)CO (centres undefined) [1,2-propanediol] + CCOC(C)=O
Settings	mass density, 298.15 K [kg/m3]	mass density, 303.15 K [kg/m3]	mass density, 308.15 K [kg/m3]	mass density, 313.15 K [kg/m3]	speed of sound, 298.15 K [m/s]	speed of sound, 308.15 K [m/s]	viscosity, 298.15 K [mPa·s]	viscosity, 308.15 K [mPa·s]
x2 = 0.0451	1024.21 ± 0.35	1020.33 ± 0.36	1016.53 ± 0.37	1012.46 ± 0.38	1463 ± 2	1429 ± 2	32.32 ± 0.44	19.38 ± 0.34
x2 = 0.1493	1005.58 ± 0.42	1001.36 ± 0.43	997.21 ± 0.44	992.76 ± 0.45	1401 ± 2	1371 ± 2	16.84 ± 0.25	11.71 ± 0.16
x2 = 0.2515	988.63 ± 0.48	984.09 ± 0.5	979.68 ± 0.51	974.9 ± 0.52	1343 ± 2	1317 ± 2	9.278 ± 0.13	7.28 ± 0.1
x2 = 0.3514	973.2 ± 0.55	968.36 ± 0.56	963.71 ± 0.57	958.63 ± 0.59	1294 ± 2	1268 ± 2	5.396 ± 0.081	4.653 ± 0.068
x2 = 0.4393	960.46 ± 0.6	955.37 ± 0.61	950.52 ± 0.63	945.17 ± 0.65	1255 ± 2	1229 ± 2	3.463 ± 0.053	3.184 ± 0.048
x2 = 0.5	952.1 ± 0.63	946.85 ± 0.65	941.84 ± 0.66	936.31 ± 0.68	1232 ± 2	1205 ± 2	2.597 ± 0.04	2.469 ± 0.038
x2 = 0.5497	945.49 ± 0.66	940.12 ± 0.68	934.99 ± 0.69	929.3 ± 0.71	1215 ± 2	1186 ± 2	2.075 ± 0.032	2.014 ± 0.031
x2 = 0.6505	932.74 ± 0.71	927.13 ± 0.73	921.75 ± 0.75	915.78 ± 0.77	1186 ± 2	1153 ± 2	1.357 ± 0.022	1.351 ± 0.022
x2 = 0.7495	921.01 ± 0.76	915.21 ± 0.78	909.59 ± 0.8	903.37 ± 0.82	1164 ± 2	1128 ± 2	0.93 ± 0.016	0.928 ± 0.016
x2 = 0.8499	909.87 ± 0.81	903.92 ± 0.83	898.1 ± 0.85	891.68 ± 0.87	1149 ± 2	1109 ± 2	0.661 ± 0.012	0.645 ± 0.011
x2 = 0.9487	899.61 ± 0.85	893.57 ± 0.87	887.61 ± 0.89	881.09 ± 0.91	1140 ± 2	1098 ± 2	0.491 ± 0.009	0.459 ± 0.009

CC(O)CO (centres undefined) [1,2-propanediol] + COC(C)=O
Settings	mass density, 298.15 K [kg/m3]	mass density, 303.15 K [kg/m3]	mass density, 308.15 K [kg/m3]	mass density, 313.15 K [kg/m3]	speed of sound, 298.15 K [m/s]	speed of sound, 308.15 K [m/s]	viscosity, 298.15 K [mPa·s]	viscosity, 308.15 K [mPa·s]
x2 = 0.0465	1027.72 ± 0.34	1023.69 ± 0.35	1020.09 ± 0.36	1015.96 ± 0.37	1472 ± 2	1434 ± 2	34.29 ± 0.48	19.21 ± 0.37
x2 = 0.1493	1016.8 ± 0.39	1012.28 ± 0.4	1008.63 ± 0.41	1004.03 ± 0.42	1429 ± 2	1391 ± 2	20.44 ± 0.32	11.62 ± 0.21
x2 = 0.251	1006.23 ± 0.44	1001.34 ± 0.45	997.58 ± 0.46	992.61 ± 0.47	1388 ± 2	1350 ± 2	12.35 ± 0.2	7.189 ± 0.13
x2 = 0.3512	995.96 ± 0.48	990.75 ± 0.49	986.86 ± 0.5	981.59 ± 0.52	1350 ± 2	1313 ± 2	7.576 ± 0.12	4.553 ± 0.086
x2 = 0.4412	986.79 ± 0.52	981.3 ± 0.54	977.29 ± 0.55	971.76 ± 0.56	1318 ± 2	1281 ± 2	4.915 ± 0.083	3.063 ± 0.058
x2 = 0.4906	981.76 ± 0.54	976.11 ± 0.56	972.05 ± 0.57	966.37 ± 0.59	1301 ± 2	1264 ± 2	3.887 ± 0.065	2.478 ± 0.047
x2 = 0.5499	975.7 ± 0.57	969.85 ± 0.59	965.73 ± 0.6	959.87 ± 0.62	1281 ± 2	1244 ± 2	2.939 ± 0.05	1.932 ± 0.035
x2 = 0.6483	965.55 ± 0.61	959.34 ± 0.63	955.15 ± 0.64	949 ± 0.66	1249 ± 2	1211 ± 2	1.859 ± 0.032	1.294 ± 0.023
x2 = 0.7483	955.01 ± 0.66	948.45 ± 0.68	944.2 ± 0.69	937.77 ± 0.71	1218 ± 2	1178 ± 2	1.176 ± 0.021	0.875 ± 0.016
x2 = 0.8499	943.97 ± 0.7	937.1 ± 0.72	932.79 ± 0.74	926.1 ± 0.76	1189 ± 2	1147 ± 2	0.744 ± 0.013	0.598 ± 0.011
x2 = 0.9447	933.26 ± 0.75	926.21 ± 0.77	921.8 ± 0.78	914.96 ± 0.8	1164 ± 2	1119 ± 2	0.489 ± 0.009	0.425 ± 0.008
